In PubChem BioAssay (NCI) one finds TGI and GI50 data, which are given here for 9 compounds.

Molecules are shown by their SMILES.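 Exposure lasted 48 hours, with cells grown in 96-well plates and compounds tested at five concentrations. GI50 marks 50% less growth. TGI denotes the concentration required for complete inhibition of growth.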

Among the test systems are BT-549 breast; HCC-2998 colon; HT29 colon; SR leukemia; SF-268 CNS; TK-10 renal; HCT-15 colon; SK-OV-3 ovarian; UACC-257 melanoma; SNB-75 CNS.
Holding throughout (experiment): NCI anticancer screen, dose series, 48 h

As to `C[N+](C)(C)CC(=O)N/N=C(/CC(=O)CC(C1=C(O)c2ccccc2OC1)c1ccccc1)C(=O)Nc1cccc(Cl)c1` (stereo not drawn), the TGI with BT-549 breast, in the test with HCC-2998 colon, in the test on HT29 colon, in the test on SR leukemia, with SF-268 CNS and in the test on TK-10 renal was greater than 100 µM throughout. For the same compound, the TGI with HCT-15 colon, with SK-OV-3 ovarian, in the test with UACC-257 melanoma and with SNB-75 CNS was greater than 100 µM throughout.

As for `OCc1cc2ccccc2c2c3c(ccc12)OCO3`, the GI50 with BT-549 breast was 27.1 µM; in the test with HCC-2998 colon, 37.8 µM; in the test with HT29 colon, 27.5 µM; in the test with SR leukemia it was 28.4 µM; in the test on SF-268 CNS, 33.8 µM; with TK-10 renal, 31.2 µM. The GI50 with HCT-15 colon was 32.5 µM; with SK-OV-3 ovarian it was 32 µM; in the test on UACC-257 melanoma, 28.1 µM; with SNB-75 CNS it was 18.4 µM. The TGI was 76.3 µM in the test with BT-549 breast; 232 µM in the test with HCC-2998 colon; 78.6 µM with HT29 colon; 76.8 µM with SR leukemia; 117 µM in the test on SF-268 CNS; 79.1 µM in the test on TK-10 renal. In addition, the TGI in the test on SK-OV-3 ovarian amounted to 96.6 µM; with UACC-257 melanoma it was 82.3 µM; in the test on SNB-75 CNS, 64 µM.

For the compound `OCCN(CCO)c1ncnc2c1ncn2Cc1ccc(CCl)cc1`, the GI50 is 11.7 µM in the test with BT-549 breast; 15.4 µM with HCC-2998 colon; 32.5 µM in the test on HT29 colon; 6.94 µM with SR leukemia; 19.8 µM in the test on SF-268 CNS; 17.1 µM in the test with TK-10 renal. Moreover, the GI50 in the test on HCT-15 colon was 18.4 µM; with UACC-257 melanoma, 13.8 µM; with SNB-75 CNS, 20.3 µM. The TGI with BT-549 breast is 24.6 µM; in the test with HCC-2998 colon, 28.9 µM; with HT29 colon it was greater than 100 µM; in the test with SR leukemia, greater than 100 µM; in the test with SF-268 CNS, 49.8 µM; in the test with TK-10 renal, 33.4 µM. The values for the TGI with HCT-15 colon, in the test with UACC-257 melanoma and with SNB-75 CNS were 39.9 µM, 28.9 µM and 40.9 µM, respectively.

For the compound `Cn1cc(C2=C(c3c4n(c5ccccc35)CCCCC4)C(=O)NC2=O)c2ccccc21`, the GI50 with BT-549 breast is greater than 11.7 µM; in the test on HCC-2998 colon it was 12.4 µM; in the test with HT29 colon it was 2.57 µM; with SR leukemia, 1.19 µM; with SF-268 CNS, 4.9 µM; with TK-10 renal, 6.38 µM. Further, the GI50 was 1.69 µM with HCT-15 colon, 7.11 µM with SK-OV-3 ovarian, greater than 25 µM with UACC-257 melanoma and 1.4 µM in the test with SNB-75 CNS. Moreover, the TGI is greater than 25 µM in the test on BT-549 breast; greater than 25 µM with HCC-2998 colon; greater than 25 µM in the test on HT29 colon; greater than 20.9 µM in the test with SR leukemia; greater than 25 µM in the test with SF-268 CNS; greater than 25 µM in the test with TK-10 renal. For the same compound, the TGI is greater than 25 µM in the test on HCT-15 colon, greater than 25 µM in the test on SK-OV-3 ovarian, greater than 25 µM in the test with UACC-257 melanoma and 11.6 µM in the test with SNB-75 CNS.

With `NS(=O)(=O)OC[C@@H]1C[C@@H](n2ccc3c(NC4CCc5ccccc54)ncnc32)C[C@@H]1O` (stereo partly drawn), the GI50 with BT-549 breast was 22.8 µM; with HCC-2998 colon, 2.97 µM; with HT29 colon, 0.566 µM; in the test with SR leukemia, 0.0827 µM; in the test with SF-268 CNS, 0.548 µM; with TK-10 renal it was 14.1 µM. Moreover, the GI50 with HCT-15 colon was 2.59 µM; in the test on SK-OV-3 ovarian, 9.36 µM; with UACC-257 melanoma, 1.02 µM; in the test on SNB-75 CNS it was 20.8 µM. Besides, the TGI in the test on BT-549 breast is greater than 95.7 µM; in the test with HCC-2998 colon it was 18.2 µM; in the test on HT29 colon, 29.2 µM; in the test with SR leukemia it was 29.5 µM; in the test on SF-268 CNS, greater than 100 µM; in the test with TK-10 renal, greater than 100 µM. The TGI in the test on HCT-15 colon was 70.1 µM; in the test on SK-OV-3 ovarian, greater than 93.9 µM; in the test with UACC-257 melanoma, greater than 90.7 µM; with SNB-75 CNS it was greater than 100 µM.

Turning to `CCC(=O)[C@H](C)[C@@H](OC(=O)[C@H](C)CC)[C@H](C)[C@H]1OC(CC)=C(C)C(=O)[C@@H]1C`, the GI50 is 16.6 µM in the test with BT-549 breast; 13.4 µM with HT29 colon; 13.5 µM in the test on SR leukemia; 25.3 µM in the test with SF-268 CNS; 30.7 µM in the test with TK-10 renal; 17 µM with HCT-15 colon. Further, the GI50 with SK-OV-3 ovarian was 37.1 µM; in the test with UACC-257 melanoma, 33.2 µM; in the test with SNB-75 CNS, 31.8 µM. The TGI is 34.9 µM in the test on BT-549 breast; 32.8 µM in the test with HT29 colon; 42.3 µM in the test with SR leukemia; greater than 100 µM in the test with SF-268 CNS; 88.9 µM in the test on TK-10 renal; 42.2 µM in the test on HCT-15 colon. The TGI was greater than 100 µM in the test with SK-OV-3 ovarian, greater than 100 µM with UACC-257 melanoma and 80.3 µM in the test on SNB-75 CNS.

Take `COc1cnc2c(c1)C(=O)c1c-2n(CCCN2CCOCC2)c(=O)c2cc(F)ccc12`: the GI50 in the test on BT-549 breast is 0.523 µM; with HCC-2998 colon it was 2.75 µM; with HT29 colon, 0.147 µM; in the test with SR leukemia, 0.0829 µM; in the test with SF-268 CNS, 0.265 µM; in the test on TK-10 renal, 0.489 µM. In addition, the values for the GI50 in the test with SK-OV-3 ovarian and with SNB-75 CNS were 0.282 µM and 0.362 µM, respectively. Also, the TGI in the test on BT-549 breast was greater than 100 µM; in the test with HCC-2998 colon, greater than 100 µM; in the test with HT29 colon, 0.638 µM; in the test with SR leukemia it was 1.27 µM; in the test on SF-268 CNS, greater than 100 µM; with TK-10 renal, 16.3 µM. Also, the TGI in the test on SK-OV-3 ovarian was 1.92 µM; in the test on SNB-75 CNS, 9.7 µM.

In the case of `C=CCOc1ccc2c(C)cc(=O)oc2c1C`, the TGI in the test on BT-549 breast, in the test on HCC-2998 colon, in the test on HT29 colon, in the test on SR leukemia, with SF-268 CNS and with HCT-15 colon was greater than 100 µM throughout. In addition, the TGI in the test on UACC-257 melanoma and in the test with SNB-75 CNS was greater than 100 µM throughout.

For the compound `Clc1ccccc1C(SCc1ccccc1)SCc1ccccc1`, the TGI in the test with BT-549 breast, in the test on HCC-2998 colon, in the test with HT29 colon, in the test on SR leukemia, in the test with SF-268 CNS and in the test on TK-10 renal was greater than 100 µM in each case. Also, the TGI in the test with HCT-15 colon, in the test with UACC-257 melanoma and with SNB-75 CNS was greater than 100 µM each time.
